This is an account of results in patent publication US20050042714A1, “Glycoconjugates of sialic acid derivates, methods for their production and use thereof” (priority 2001, published 2005).

Common to all, as to format: cell-based, human
For test [1], the system named is HL60-I cells. Kind of test: uptake of peracetylated/esterified NeuAc: VVA and TML lectin staining by flow cytometry. Conditions: for effect on cell surface sialylation (VVA and TML binding): 0.03 to 1 mM (NeuAc 1 or 5 mM), 0.5% DMSO. The procedure: Peracetylation of NeuAc only facilitates uptake if the carboxyl group is additionally esterified. Hyposialylated HL60-I cells were cultivated in the presence of indicated synthetic sialic acid analogue (stock solution 200 mM in DMSO) ranging from 0.03 to 1 mM or 0, 1 or 5 mM NeuA for 72 h with DMSO concentrations adjusted to 0.5%. Cells were stained with either directly fluorochrome-coupled lectin VVA, or biotin-coupled lectin (TML) and streptavidin-FITC for analysis by flow cytometry. Values given are relative factors of change of the mean fluorescence intensity of pretreated cells relative to untreated cells. The bars represent arithmetic means±SD (n=3). Molecular structures are given below the diagram.
Sugars are very hydrophilic and it has been shown that increasing the hydrophobicity by peracetylation of hydroxyl groups enables or facilitates uptake of disaccharides (Collins, B. E., Fralich, T. J., Itonori, S., Ichikawa, Y. and Schnaar, R. L. (2000) Glycobiology, 10, 11-20; Sarkar, A. K., Fritz, T. A., Taylor, W. H. and Esko, J. D. (1995) Proc Natl Acad Sci USA, 92, 3323-7; Sarkar, A. K., Rostand, K. S., Jain, R. K., Matta, K. L. and Esko, J. D. (1997) J Biol Chem, 272, 25608-16). For ManNAc derivatives it has been shown that peracetylation reduces required medium concentrations (Collins et al., 2000). The acetyl groups are cleaved-off intracellularly by cellular esterases (Collins et al., 2000; Sarkar et al., 1995; Sarkar et al., 1997) and the derivatives are then processed as known for the non-acetylated sugars. In order to address the question whether peracetylation also facilitates uptake of N-acetylneuraminic acid, HL60-I cells were cultivated in the presence of peracetylated NeuAc at concentrations ranging from 0.03 mM to 1 mM for 3 days. Changes in cell surface sialylation were measured by flow cytometry using Vicia Villosa agglutinin (VVA) and Tritrichomonas mobilensis lectin (TML). […] This represents a reduction in concentration by more than 16-fold and is in a similar range as reported for peracetylated ManNAc and ManNAc (Collins et al., 2000).
(§1) Lyophilized FITC-conjugated lectins Vicia villosa (VVA) was obtained from Sigma, dissolved in H2O (1 mg/ml), aliquoted and stored at −20° C. according to the manufacturer's instructions. FITC-conjugated Limax flavus agglutinin (LFA) was from EY Laboratories (San Manteo, Calif., USA) and biotin-coupled Tritrichomonas mobilensis agglutinin (TLM) from Calbiochem. Lectin staining procedure and fluorescence-activated cell scanning on a Becton Dickinson FACScan cytometer using Cellquest II software were carried out as described (Keppler, O. T., Molden-hauer, G., Oppenländer, M., Schwartz-Albiez, R., Berger, E. G., Funderud, S., and Pawlita, M. (1992) Eur J Immunol 22(11), 2777-81). Briefly, cells (3×10^5) were washed twice in cold PBS and then incubated in 100 μl PBS/0.05% NaN3, containing either fluorochrome-conjugated lectins VVA (50 μg/ml), LFA (20 μg/ml), or biotinylated TLM (20 μg/ml) for 45 min on ice in the dark. For biotinylated TLM a secondary incubation step with steptavidin-FITC (20 μg/ml) (Sigma) for 30 min on ice in the dark is required. After washing with PBS, cells were resuspended in 300 μl PBS and analyzed by flow cytometry.

Test [2] concerns HL60-I cells. Kind of test: metabolic complementation assay: lectin staining (VVA, LFA, TLM) of analogue-treated cells by flow cytometry. Particulars: 5 mM, 24 h; for effect on VVA binding: decrease = masking of GalNAc by sialic acid. How it is done:
Medium supplementation with some synthetic sialic acid analogues restores cell surface sialylation in hyposialylated HL60-I cells. Cells were cultivated in the presence of indicated synthetic sialic acid analogue (5 mM) for 24 h and stained with either directly fluorochrome-coupled lectins (VVA, LFA) or biotin-coupled lectin (TLM) and streptavidin-FITC and analyzed by flow cytometry. Values are given as “relative factor of change” (RFC) of the “mean fluorescence intensity” (MFI) of sialic acid-treated cells relative to untreated cells. The bars represent arithmetic means±SD (n^34) of one (x) or ≧two experiments.
To test whether cells can incorporate synthetic sialic acid analogues from the culture medium, a metabolic complementation assay was performed on endogenously hyposialylated, UDP-GlcNAc-2-epimerase-deficient HL60-I cells.
Cells were cultivated for 24 h in the presence of one of 16 different synthetic sialic acid analogues, carrying distinct C5 or C9 modifications (FIG. 1), and subsequently, changes in cell surface sialylation were assessed by flow cytometry using three fluorochrome-conjugated sialic acid-sensitive lectins. Vicia villosa agglutinin (VVA) detects GalNAc residues, and its binding sites can be masked by the addition of terminal sialic acid residues.
In sugar supplementation assays, cells seeded at 5×10^5 cells/ml in culture medium buffered with 40 mM HEPES (pH 7.2) were cultivated for 24 h in the presence or absence of 5 mM sialic acids (stocks of 100 mM dissolved in H2O, stored at 4° C.).
as §1

In test [3] the test system is BJA-B K20 cells. Nature of the test: HPLC of membrane-associated sialic acids from analogue-treated cells. Particulars: serum-free, 5 mM, 48 h. The procedure: Sialic acid analogues are incorporated in cell surface glycoconjugates. HPLC chromatograms of DMB-derivatised sialic acids hydrolysed from glycoproteins of sialic acid analogue-treated BJA-B K20 cells. (A) standards, (B) untreated cells, (C) cells cultivated in 5-N-fluoroacNeu, (D) cells cultivated in 9-iodo-NeuAc. Peaks were identified as follows: NeuGc (internal standard), NeuAc, 5-N-fluoroac-Neu, 9-iodo-NeuAc, Na-pyruvate (internal standard). Internal standards were added to each sample.
To confirm that synthetic sialic acid analogues supplementing the medium were taken up and metabolically incorporated as analogues into surface sialoglyco-conjugates the membrane-associated sialic acid fraction was analyzed by High Performance Liquid Chromatography (HPLC). […]
To confirm that the modifications are still present after incorporation into glycoconjugates sialic acids were cleaved off cell surfaces and analyzed by HPLC. […] Sialic acids derivation was performed according to a method as given below and samples were analyzed on a reversed-phase C18 column as described (Keppler, O. T., Stehling, P., Herrmann, M., Kayser, H., Grunow, D., Reutter, W., and Pawlita, M. (1995) J Biol Chem 270(3), 1308-14).

As to `COC(=O)C1(OC(C)=O)C[C@H](OC(C)=O)[C@@H](NC(C)=O)[C@H]([C@H](OC(C)=O)[C@@H](COC(C)=O)OC(C)=O)O1` (stereo partly shown) [NeuAcperOAc-Me-ester], the “reduction in concentration relative to NeuAc” value in test [1] (0.3 mM vs 5 mM NeuAc) is on record as “more than 16 fold”. Moreover, in test [1] (HL60-I cells, 72 h), the “effect on cell surface sialylation (VVA and TML binding)” value is reported as “strongly increased cell surface sialylation”; the “medium concentration showing similar effects as 5 mM NeuAc” value is 0.3 mM.
With `CC(=O)NC1C(OC(C)=O)CC(OC(C)=O)(C(=O)O)OC1C(OC(C)=O)C(COC(C)=O)OC(C)=O` (stereo not shown) [NeuAcperOAc], the “effect on cell surface sialylation (VVA and TML binding)” value in test [1] (HL60-I cells, 72 h) is recorded as “no effect on cell surface sialylation”.
For the compound `CC(=O)N[C@H]1[C@H]([C@H](O)[C@H](O)CN)OC(O)(C(=O)O)C[C@@H]1O` (stereo partly shown) [analogue b, 5-N-acetyl-9-amino-9-deoxy-neuraminic acid], in test [2], the “changes in cell surface sialylation (lectin binding overall)” value was “failed to induce changes in cell surface sialylation”.
Still for that read-out and setting: to `CC(=O)NC[C@@H](O)[C@@H](O)[C@@H]1OC(O)(C(=O)O)C[C@H](O)[C@H]1NC(C)=O` (stereo partly shown) [analogue c, 5-N-acetyl-9-acetamido-9-deoxy-neuraminic acid] belongs “failed to induce changes in cell surface sialylation”.
Regarding `CC(=O)N[C@H]1[C@H]([C@H](O)[C@H](O)CNC(=O)CN)OC(O)(C(=O)O)C[C@@H]1O` (stereo partly shown) [analogue d, 9-N-aminoacetamido-9-deoxy-neuraminic acid], the “effect on VVA binding” value in test [2] is reported as “weak or no effect on VVA binding”.
Still for that read-out and setting: to `CC(=O)N[C@H]1[C@H]([C@H](O)[C@H](O)CNC(=O)CCC(=O)O)OC(O)(C(=O)O)C[C@@H]1O` (stereo partly shown) [analogue e, 5-N-acetyl-9-deoxy-9-succinylamido-neuraminic acid] belongs “weak or no effect on VVA binding”.
As to `CC(=O)N[C@H]1[C@H]([C@H](O)[C@H](O)CS)OC(O)(C(=O)O)C[C@@H]1O` (stereo partly shown) [analogue g, 5-N-acetyl-9-deoxy-9-thio-neuraminic acid], in test [2], the “effect on LFA binding” value is recorded as “increased binding of LFA”, the “effect on TLM binding” value is reported as “increased binding” and the “effect on VVA binding” value was “significantly decreased VVA-binding”.
The corresponding values for `CSC[C@@H](O)[C@@H](O)[C@@H]1OC(O)(C(=O)O)C[C@H](O)[C@H]1NC(C)=O` (stereo partly shown) [analogue h, 5-N-acetyl-9-deoxy-9-methylthio-neuraminic acid] are “increased binding of LFA”, “increased binding” and “significantly decreased VVA-binding”.
On to `CC(=O)N[C@H]1[C@H]([C@H](O)[C@H](O)CS(C)(=O)=O)OC(O)(C(=O)O)C[C@@H]1O` (stereo partly shown) [analogue i, 5-N-acetyl-9-deoxy-9-methylsulfonyl-neuraminic acid], for which, in test [2], the “effect on LFA binding” value is “increased binding of LFA”, the “effect on TLM binding” value is “increased binding” and the “effect on VVA binding” value is listed as “significantly decreased VVA-binding”.
Take `O=C(CF)N[C@H]1[C@H]([C@H](O)[C@H](O)CO)OC(O)(C(=O)O)C[C@@H]1O` (stereo partly shown) [analogue j, 5-N-fluoroacetyl-neuraminic acid]: the “share of membrane-associated sialic acids consisting of the analogue” value in test [3] was 90.5%. Besides, in test [2], the “effect on LFA binding” value is “increased binding of LFA”, the “effect on TLM binding” value is given as “increased binding” and the “effect on VVA binding” value was “significantly decreased VVA-binding”.
Take `O=C(N[C@H]1[C@H]([C@H](O)[C@H](O)CO)OC(O)(C(=O)O)C[C@@H]1O)C(F)(F)F` (stereo partly shown) [analogue k, 5-N-trifluoroacetyl-neuraminic acid]: the “effect on VVA binding” value in test [2] was “significantly decreased VVA-binding”.
Take `NCC(=O)N[C@H]1[C@H]([C@H](O)[C@H](O)CO)OC(O)(C(=O)O)C[C@@H]1O` (stereo partly shown) [analogue l, 5-N-aminoacetyl-neuraminic acid]: the “effect on VVA binding” value in test [2] is listed as “weak or no effect on VVA binding”.
The same measure, in the same setting: to `O=C(O)CCC(=O)N[C@H]1[C@H]([C@H](O)[C@H](O)CO)OC(O)(C(=O)O)C[C@@H]1O` (stereo partly shown) [analogue m, 5-N-succinyl-neuraminic acid] belongs “weak or no effect on VVA binding”.
As for `CC(=S)N[C@H]1[C@H]([C@H](O)[C@H](O)CO)OC(O)(C(=O)O)C[C@@H]1O` (stereo partly shown) [analogue n, 5-N-thioacetyl-neuraminic acid], in test [2], the “effect on TLM binding” value was “increased binding” and the “effect on VVA binding” value is “significantly decreased VVA-binding”.
Turning to `CCOC(=O)C1(O)C[C@H](O)[C@@H](NC(C)=O)[C@H]([C@H](O)[C@H](O)CO)O1` (stereo partly shown) [analogue p, ethyl N-acetyl neuraminate], in test [2], the “effect on LFA binding” value is “increased binding of LFA”, the “effect on TLM binding” value was “increased binding” and the “effect on VVA binding” value is “significantly decreased VVA-binding”. Moreover, in test [2] (listed as NeuAc-Et-Ester), the “effect on LFA binding” value was “very similar to those of NeuAc” and the “effect on TLM binding” value was “very similar to those of NeuAc”.
